# From patent US20260217687A1 (NeoPhore Limited, priority 2023, published 2026)
# Target: T1, recombinant N-terminal MLH1 (residues 15-340) (Homo sapiens, UniProt P40692)
# T1 construct: recombinant N-terminal MLH1 (residues 15-340)
# T1 sequence (P40692 15-340): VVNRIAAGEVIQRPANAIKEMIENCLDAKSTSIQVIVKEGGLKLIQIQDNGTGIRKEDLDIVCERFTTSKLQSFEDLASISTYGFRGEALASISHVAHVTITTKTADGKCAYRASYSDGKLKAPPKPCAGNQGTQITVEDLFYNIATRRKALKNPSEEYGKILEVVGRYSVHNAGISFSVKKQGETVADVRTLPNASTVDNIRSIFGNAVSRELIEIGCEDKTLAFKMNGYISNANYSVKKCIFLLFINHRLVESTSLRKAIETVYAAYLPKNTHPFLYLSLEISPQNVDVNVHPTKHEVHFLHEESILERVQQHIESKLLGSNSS
# Assay: Fluorescence Polarisation Assay for MLH1
# Assay type: binding
# Settings: 100 nM N-terminal MLH1, 5 nM probe compound
# Description: Fluorescence Polarisation Assay for MLH1
# Test compounds, as 10 mM DMSO stocks, were dispensed into a 384-well Low Flange Black Flat Bottom Polystyrene Non-binding Surface plate (Corning®, item number 3575) using a Labcyte Echo acoustic liquid handler. […] 20 μL of a 2× solution (200 nM) of recombinant N-terminal MLH1 (residues 15-340) in assay buffer (25 mM HEPES, pH 7.5, 250 mM NaCl, 10 mM MgCl2, 0.01% Triton X-100, 5 mM Dithiothreitol) was added to all wells in columns 1-23 and 20 μL assay buffer was added to all wells in column 24 using an E1-ClipTip pipette (ThermoFisher). Plates were centrifuged for 1 minute at 250 xg and were incubated at room temperature for 30 minutes prior to the addition of 20 μL of 2×(10 nM) of 5-((5-(4-((2-(2-(Benzyloxy)-4,6-dihydroxybenzoyl)isoindolin-5-yl)methyl)piperazin-1-yl)pentyl)carbamoyl)-2-(6-(dimethylamino)-3-(dimethyliminio)-3H-xanthen-9-yl)benzoate (referred to hereinafter as “probe compound”) in assay buffer (prepared from a 1 mM DMSO stock) with an E1-ClipTip pipette (ThermoFisher). The final concentration of N-terminal MLH1 was 100 nM and the final concentration of the probe compound was 5 nM. Compound plates were centrifuged for 1 minute at 250 xg for 1 minute and immediately read on a PheraStar FSX (fitted with 384-well aperture spoon and 590 675 675 FP optic module). The gain and focus were adjusted before each plate was read so that the polarisation of a no enzyme control (column 24) was equal to 35 mP. Data were normalised against the no inhibitor controls (column 23) and no enzyme controls (column 24).
row,IC50 [nM],Compound
1,100 to 1000,"CN1CC[C@@H](Nc2cccc3c2CN(C(=O)c2c(O)cc(C(F)F)cc2OCc2ccccc2)C3)C1=O [Example 4.14, (R)-3-((2-(2-(Benzyloxy)-4-(difluoromethyl)-6-hydroxybenzoyl)isoindolin-4-yl)amino)-1-methylpyrrolidin-2-one]"
2,100 to 1000,"CN1CC[C@@H](Nc2cccc3c2CN(C(=O)c2c(O)cc(C(F)F)cc2OCc2ccccc2)CC3)C1=O [Example 4.15, (R)-3-((2-(2-(Benzyloxy)-4-(difluoromethyl)-6-hydroxybenzoyl)-1,2,3,4-tetrahydroisoquinolin-8-yl)amino)-1-methylpyrrolidin-2-one]"
3,100 to 1000,"O=C1OCCC1Nc1cccc2c1CN(C(=O)c1c(O)cc(C(F)F)cc1OCc1ccccc1)C2 (centres unmarked) [Example 4.16, 3-((2-(2-(Benzyloxy)-4-(difluoromethyl)-6-hydroxybenzoyl)isoindolin-4-yl)amino)dihydrofuran-2(3H)-one]"
4,100 to 1000,"O=C1OCCC1Nc1cccc2c1CN(C(=O)c1c(O)cc(C(F)F)cc1OCc1ccccc1)CC2 (centres unmarked) [Example 4.17, 3-((2-(2-(Benzyloxy)-4-(difluoromethyl)-6-hydroxybenzoyl)-1,2,3,4-tetrahydroisoquinolin-8-yl)amino) dihydrofuran-2(3H)-one]"
5,100 to 1000,"COc1cc2c(c(N[C@H]3CCOC3)c1)CN(C(=O)c1c(O)cc(C(F)F)cc1OCc1ccccc1)C2 [Example 4.18, (S)-(2-(Benzyloxy)-4-(difluoromethyl)-6-hydroxyphenyl)(6-methoxy-4-((tetrahydrofuran-3-yl)amino)isoindolin-2-yl)methanone]"
6,100 to 1000,"O=C(c1c(O)cc(C(F)F)cc1OCc1ccccc1)N1Cc2cc(Cn3ccnc3)cc(N[C@H]3CCOC3)c2C1 [Example 4.19, (S)-(6-((1H-Imidazol-1-yl)methyl)-4-((tetrahydrofuran-3-yl)amino)isoindolin-2-yl) (2-(benzyloxy)-4-(difluoromethyl)-6-hydroxyphenyl)methanone]"
7,100 to 1000,"COc1cc2c(c(N[C@H]3CCOC3)c1)CN(C(=O)c1c(O)cc(C(F)F)cc1OCc1ccccc1)CC2 [Example 4.20, (S)-(2-(Benzyloxy)-4-(difluoromethyl)-6-hydroxyphenyl)(6-methoxy-8-((tetrahydrofuran-3-yl)amino)-3,4-dihydroisoquinolin-2(1H)-yl)methanone]"
8,< 100,"CN(C)Cc1cc2c(c(N[C@H]3CCOC3)c1)CN(C(=O)c1c(O)cc(C(F)F)cc1OCc1ccccc1)CC2 [Example 4.21, (S)-(2-(Benzyloxy)-4-(difluoromethyl)-6-hydroxyphenyl)(6-((dimethylamino)methyl)-8-((tetrahydrofuran-3-yl)amino)-3,4-dihydroisoquinolin-2(1H)-yl)methanone]"
9,< 100,"O=C(c1c(O)cc(C(F)F)cc1OCc1ccccc1)N1CCc2cc(Cn3ccnc3)cc(N[C@H]3CCOC3)c2C1 [Example 4.22, (S)-(6-((1H-Imidazol-1-yl)methyl)-8-((tetrahydrofuran-3-yl)amino)-3,4-dihydroisoquinolin-2(1H)-yl)(2-(benzyloxy)-4-(difluoromethyl)-6-hydroxyphenyl)methanone]"
10,1000 to 10000,"COc1ccc2c(c1N[C@H]1CCOC1)CN(C(=O)c1c(O)cc(C(F)F)cc1OCc1ccccc1)CC2 [Example 4.23, (S)-(2-(Benzyloxy)-4-(difluoromethyl)-6-hydroxyphenyl)(7-methoxy-8-((tetrahydrofuran-3-yl)amino)-3,4-dihydroisoquinolin-2(1H)-yl)methanone]"
11,100 to 1000,"Cn1cncc1-c1cc2c(c(N[C@H]3CCOC3)c1)CN(C(=O)c1c(O)cc(C(F)F)cc1OCc1ccccc1)C2 [Example 4.24, (S)-(2-(Benzyloxy)-4-(difluoromethyl)-6-hydroxyphenyl)(6-(1-methyl-1H-imidazol-5-yl)-4-((tetrahydrofuran-3-yl)amino)isoindolin-2-yl)methanone]"
12,100 to 1000,"Cn1cnc(-c2cc3c(c(N[C@H]4CCOC4)c2)CN(C(=O)c2c(O)cc(C(F)F)cc2OCc2ccccc2)C3)c1 [Example 4.25, (S)-(2-(Benzyloxy)-4-(difluoromethyl)-6-hydroxyphenyl)(6-(1-methyl-1H-imidazol-4-yl)-4-((tetrahydrofuran-3-yl)amino)isoindolin-2-yl)methanone]"
13,100 to 1000,"Cn1cncc1-c1cc2c(c(N[C@H]3CCOC3)c1)CN(C(=O)c1c(O)cc(C(F)F)cc1OCc1ccccc1)CC2 [Example 4.26, (S)-(2-(Benzyloxy)-4-(difluoromethyl)-6-hydroxyphenyl) (6-(1-methyl-1H-imidazol-5-yl)-8-((tetrahydrofuran-3-yl)amino)-3,4-dihydroisoquinolin-2(1H)-yl)methanone]"
14,100 to 1000,"Cn1cnc(-c2cc3c(c(N[C@H]4CCOC4)c2)CN(C(=O)c2c(O)cc(C(F)F)cc2OCc2ccccc2)CC3)c1 [Example 4.27, (S)-(2-(Benzyloxy)-4-(difluoromethyl)-6-hydroxyphenyl) (6-(1-methyl-1H-imidazol-4-yl)-8-((tetrahydrofuran-3-yl)amino)-3,4-dihydroisoquinolin-2(1H)-yl)methanone]"
15,100 to 1000,"COCCNc1cccc2c1CN(C(=O)c1c(O)cc(C(F)F)cc1OCc1ccccc1)C2 [Example 4.28, (2-(Benzyloxy)-4-(difluoromethyl)-6-hydroxyphenyl) (4-((2-methoxyethyl)amino)isoindolin-2-yl)methanone]"
16,100 to 1000,"CN(C)C(=O)CNc1cccc2c1CN(C(=O)c1c(O)cc(C(F)F)cc1OCc1ccccc1)C2 [Example 4.29, 2-((2-(2-(Benzyloxy)-4-(difluoromethyl)-6-hydroxybenzoyl)isoindolin-4-yl)amino)-N, N-dimethylacetamide]"
17,100 to 1000,"CN1CCN(Cc2ccc3c(c2)CN(C(=O)c2c(O)cc(C(F)F)cc2OCc2ccccc2)C3)CC1 [Example 4.30, (2-(Benzyloxy)-4-(difluoromethyl)-6-hydroxyphenyl) (5-((4-methylpiperazin-1-yl)methyl)isoindolin-2-yl) methanone]"
18,100 to 1000,"CN(C)CCOc1ccc2c(c1)CN(C(=O)c1c(O)cc(C(F)F)cc1OCc1ccccc1)C2 [Example 4.31, (2-(Benzyloxy)-4-(difluoromethyl)-6-hydroxyphenyl)(5-(2-(dimethylamino)ethoxy)isoindolin-2-yl)methanone]"
19,100 to 1000,CN1CC(Nc2cccc3c2CN(C(=O)c2c(O)cc(C(F)F)cc2OCc2ccccc2)C3)C1 [Example 4.33]
20,1000 to 10000,"CNc1cccc2c1CN(C(=O)c1c(O)cc(C(F)F)cc1OCc1ccccc1)C2 [Example 4.34, (2-(Benzyloxy)-4-(difluoromethyl)-6-hydroxyphenyl) (4-(methylamino)isoindolin-2-yl) methanone]"
21,1000 to 10000,"O=C(c1c(O)cc(C(F)F)cc1OCc1ccccc1)N1CCc2ccccc2C1 [Example 4.35, (2-(Benzyloxy)-4-(difluoromethyl)-6-hydroxyphenyl)(3,4-dihydroisoquinolin-2(1H)-yl)methanone]"
22,1000 to 10000,"CNc1cccc2c1CN(C(=O)c1c(O)cc(C(F)F)cc1OCc1ccccc1)CC2 [Example 4.36, (2-(Benzyloxy)-4-(difluoromethyl)-6-hydroxyphenyl)(8-(methylamino)-3,4-dihydroisoquinolin-2(1H)-yl)methanone]"
23,1000 to 10000,"COCCNc1cccc2c1CN(C(=O)c1c(O)cc(C(F)F)cc1OCc1ccccc1)CC2 [Example 4.37, (2-(Benzyloxy)-4-(difluoromethyl)-6-hydroxyphenyl)(8-((2-methoxyethyl)amino)-3,4-dihydroisoquinolin-2(1H)-yl)methanone]"
24,1000 to 10000,"COc1ccc2c(c1)CN(C(=O)c1c(O)cc(C(F)F)cc1OCc1ccccc1)CC2 [Example 4.38, (2-(Benzyloxy)-4-(difluoromethyl)-6-hydroxyphenyl)(7-methoxy-3,4-dihydroisoquinolin-2(1H)-yl)methanone]"
25,1000 to 10000,"COc1ccc2c(c1)CCN(C(=O)c1c(O)cc(C(F)F)cc1OCc1ccccc1)C2 [Example 4.39, (2-(Benzyloxy)-4-(difluoromethyl)-6-hydroxyphenyl)(6-methoxy-3,4-dihydroisoquinolin-2(1H)-yl)methanone]"
26,100 to 1000,"CN(C)CCOc1ccc2c(c1)CN(C(=O)c1c(O)cc(C(F)F)cc1OCc1ccccc1)CC2 [Example 4.40, (2-(Benzyloxy)-4-(difluoromethyl)-6-hydroxyphenyl)(7-(2-(dimethylamino)ethoxy)-3,4-dihydroisoquinolin-2(1H)-yl)methanone]"
